Tests used:
[1] = Liquid, Vibrating tube method
[2] = molar heat capacity at saturation pressure; details: Liquid

c1ccc2nc3ccccc3cc2c1 [acridine]
Details | mass density [kg/m3] | molar heat capacity [J/K/mol]
[1], 423.15 K | 1064.9 | –
[1], 448.15 K | 1043.7 | –
[1], 473.15 K | 1023.9 | –
[1], 498.15 K | 1005.1 | –
[1], 523.15 K | 985.4 | –
[1], 548.15 K | 964.8 | –
[2], 460 K | – | 343.6
[2], 480 K | – | 352.2
[2], 500 K | – | 360.6
[2], 520 K | – | 368.7
[2], 540 K | – | 376.4
[2], 560 K | – | 383.8
[2], 580 K | – | 390.8
[2], 600 K | – | 397.3

Reference: the NIST ThermoML archive (doi:10.1016/j.jct.2009.11.010)
